According to patent publication US20100029479A1, “PESTICIDAL COMBINATIONS” (SYNGENTA CROP PROTECTION, INC., priority 2006, published 2010):

Tests used:
Tilletia caries = experiment: Tilletia caries, number of ears infected (seed treatment, field plots); format: in vivo; conditions: Winter wheat/caphorn, Antraquinone 50, combination 50 + 2 + 5 + 3 gai/100 kg seed
Ustilago = experiment: Ustilago, % pest incidence (seed treatment, field plots); format: in vivo; conditions: Antraquinone 50, combination 50 + 2 + 5 + 3 gai/100 kg seed

Question: `O=C1c2ccccc2C(=O)c2ccccc21` [Antraquinone] was tested. Which “Number of Ears Infected” value (Tilletia caries; Trial 1, plot 15 m^2, 253 DAP) did it give?
Answer: Its value is 14.3 (a).

Question: And the “Number of Ears Infected” value (Tilletia caries; Trial 2, plot 14.25 m^2, 220 DAP)?
Answer: The value was 232.3 (a).

Question: And the “Number of Ears Infected” value (Tilletia caries; Trial 3, plot 15 m^2, 212 DAP)?
Answer: The value was 84.3 (a).

Question: What about the “Number of Ears Infected” value (Tilletia caries; Trial 4, plot 12 m^2, 192 DAP) of the same molecule?
Answer: Its value is 56 (a).

Question: What about the “% Pest Incidence” value (Ustilago; Trial 1, Winter barley var LL09OH05, plot 15 m^2, 210 DAP) of the same molecule?
Answer: The value was 18.1 (a) %.

Question: What about the “% Pest Incidence” value (Ustilago; Trial 2, Winter barley var LL05OH05, plot 14.4 m^2, 205 DAP) of the same molecule?
Answer: The value was 5.6 (a) %.

Question: And the “% Pest Incidence” value (Ustilago; Trial 3, Winter barley, plot 14.4 m^2, 161 DAP)?
Answer: The value was 22.2 (a) %.
